The results in this text go back to patent US10513521B2, “Compositions and methods for inhibiting BMP” (The Brigham and Women's Hospital, Inc., priority 2014, dated 2019).

One assay concerns the target ALK1 (Homo sapiens, UniProt P37023). Nature of the assay: TR-FRET enzymatic ALK kinase assay, ALK1. Background: In TR-FRET formats the signal depends on donor and acceptor labels being close together.
Another assay deals with T1, ALK2 (Homo sapiens, UniProt Q04771).
T1 sequence (Q04771 21-509): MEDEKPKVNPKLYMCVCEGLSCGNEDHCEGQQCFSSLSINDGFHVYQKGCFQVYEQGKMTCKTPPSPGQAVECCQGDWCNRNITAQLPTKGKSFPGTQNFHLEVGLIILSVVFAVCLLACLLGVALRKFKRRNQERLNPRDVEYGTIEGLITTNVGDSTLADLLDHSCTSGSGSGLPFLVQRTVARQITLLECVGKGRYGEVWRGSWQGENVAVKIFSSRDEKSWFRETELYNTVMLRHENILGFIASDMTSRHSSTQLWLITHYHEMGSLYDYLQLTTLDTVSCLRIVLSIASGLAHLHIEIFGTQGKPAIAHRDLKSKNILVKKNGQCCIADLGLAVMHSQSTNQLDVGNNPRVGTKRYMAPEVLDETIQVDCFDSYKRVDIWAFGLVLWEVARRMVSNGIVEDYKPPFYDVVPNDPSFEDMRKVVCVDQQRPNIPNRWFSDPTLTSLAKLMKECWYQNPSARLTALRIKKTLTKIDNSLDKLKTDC
Nature of the assay: TR-FRET enzymatic ALK kinase assay, ALK2.

Another assay has as its target ALK3 (Homo sapiens, UniProt P36894). Nature of the assay: TR-FRET enzymatic ALK kinase assay, ALK3.
The target in the next assay is T2, ALK4 (Homo sapiens, UniProt P36896).
T2 sequence (P36896 24-505): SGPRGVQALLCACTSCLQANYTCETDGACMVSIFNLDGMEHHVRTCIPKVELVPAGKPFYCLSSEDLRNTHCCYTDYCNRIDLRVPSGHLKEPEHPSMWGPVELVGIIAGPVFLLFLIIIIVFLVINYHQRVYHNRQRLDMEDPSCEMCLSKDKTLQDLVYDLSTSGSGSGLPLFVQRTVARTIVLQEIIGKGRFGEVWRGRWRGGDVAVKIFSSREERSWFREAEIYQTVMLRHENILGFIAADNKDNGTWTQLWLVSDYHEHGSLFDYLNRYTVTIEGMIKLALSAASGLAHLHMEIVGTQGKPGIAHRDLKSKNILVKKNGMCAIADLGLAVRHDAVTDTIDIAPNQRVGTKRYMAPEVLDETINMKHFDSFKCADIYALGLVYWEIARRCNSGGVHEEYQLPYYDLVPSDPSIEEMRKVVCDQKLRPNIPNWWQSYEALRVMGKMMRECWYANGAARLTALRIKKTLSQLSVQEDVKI
Nature of the assay: TR-FRET enzymatic ALK kinase assay, ALK4.

The target in the next assay is T3, ALK5 (Homo sapiens, UniProt P36897).
T3 sequence (P36897 34-503): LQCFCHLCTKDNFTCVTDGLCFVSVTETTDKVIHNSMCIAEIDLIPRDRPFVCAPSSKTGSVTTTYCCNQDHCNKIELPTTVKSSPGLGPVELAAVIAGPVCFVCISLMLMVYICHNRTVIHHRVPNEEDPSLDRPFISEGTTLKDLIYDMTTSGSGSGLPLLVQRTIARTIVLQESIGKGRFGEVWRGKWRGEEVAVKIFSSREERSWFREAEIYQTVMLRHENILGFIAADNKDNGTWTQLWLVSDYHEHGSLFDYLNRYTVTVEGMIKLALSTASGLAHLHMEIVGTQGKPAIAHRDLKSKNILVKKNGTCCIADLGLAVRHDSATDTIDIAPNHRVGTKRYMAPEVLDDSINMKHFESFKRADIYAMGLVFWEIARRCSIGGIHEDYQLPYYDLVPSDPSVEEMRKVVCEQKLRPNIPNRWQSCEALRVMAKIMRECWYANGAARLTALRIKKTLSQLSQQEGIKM
Nature of the assay: TR-FRET enzymatic ALK kinase assay, ALK5.

Another assay concerns the target ALK6 (Homo sapiens, UniProt O00238). Nature of the assay: TR-FRET enzymatic ALK kinase assay, ALK6.

ALK1, sequence (P37023 22-503): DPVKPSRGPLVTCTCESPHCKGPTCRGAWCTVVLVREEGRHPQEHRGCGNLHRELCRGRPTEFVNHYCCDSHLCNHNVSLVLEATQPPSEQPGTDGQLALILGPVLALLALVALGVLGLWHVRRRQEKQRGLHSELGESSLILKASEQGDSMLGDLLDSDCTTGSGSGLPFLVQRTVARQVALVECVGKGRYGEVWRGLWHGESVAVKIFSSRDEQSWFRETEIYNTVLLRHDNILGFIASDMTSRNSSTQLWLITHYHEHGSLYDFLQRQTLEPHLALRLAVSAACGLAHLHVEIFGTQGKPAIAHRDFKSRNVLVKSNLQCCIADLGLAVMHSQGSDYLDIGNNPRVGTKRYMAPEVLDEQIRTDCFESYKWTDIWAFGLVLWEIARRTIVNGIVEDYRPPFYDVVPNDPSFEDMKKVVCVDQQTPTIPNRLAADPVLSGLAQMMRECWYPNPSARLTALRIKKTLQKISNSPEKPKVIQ
ALK6, sequence (O00238 14-502): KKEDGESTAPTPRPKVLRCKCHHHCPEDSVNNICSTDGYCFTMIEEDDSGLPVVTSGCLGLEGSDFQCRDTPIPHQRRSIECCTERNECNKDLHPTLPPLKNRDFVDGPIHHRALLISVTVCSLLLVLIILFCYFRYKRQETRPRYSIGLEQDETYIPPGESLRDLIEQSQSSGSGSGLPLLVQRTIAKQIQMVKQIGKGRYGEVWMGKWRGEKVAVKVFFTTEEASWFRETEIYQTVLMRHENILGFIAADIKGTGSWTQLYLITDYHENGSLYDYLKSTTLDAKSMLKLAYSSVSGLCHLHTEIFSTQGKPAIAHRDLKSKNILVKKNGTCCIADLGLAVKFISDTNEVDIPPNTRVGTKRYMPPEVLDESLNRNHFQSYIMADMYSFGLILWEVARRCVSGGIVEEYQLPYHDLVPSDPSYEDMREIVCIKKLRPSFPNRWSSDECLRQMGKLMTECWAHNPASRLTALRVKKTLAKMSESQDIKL
ALK3, sequence (P36894 24-532): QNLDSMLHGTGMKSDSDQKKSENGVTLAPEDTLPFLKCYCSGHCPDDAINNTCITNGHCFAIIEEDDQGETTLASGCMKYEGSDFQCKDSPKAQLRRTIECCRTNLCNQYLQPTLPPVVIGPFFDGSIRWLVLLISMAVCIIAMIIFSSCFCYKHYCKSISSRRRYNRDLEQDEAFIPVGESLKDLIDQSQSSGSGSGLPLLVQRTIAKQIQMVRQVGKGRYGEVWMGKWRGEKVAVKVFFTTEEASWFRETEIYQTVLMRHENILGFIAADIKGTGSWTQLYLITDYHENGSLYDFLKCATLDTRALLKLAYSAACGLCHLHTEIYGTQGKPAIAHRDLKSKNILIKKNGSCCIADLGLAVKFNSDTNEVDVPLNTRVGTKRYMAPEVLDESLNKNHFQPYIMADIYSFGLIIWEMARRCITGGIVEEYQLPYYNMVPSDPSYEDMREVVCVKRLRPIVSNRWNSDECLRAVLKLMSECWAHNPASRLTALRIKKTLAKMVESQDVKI
Method for ALK1: (§1) Briefly, the ALKs enzymatic assay was initiated by dispense 2.5 μl enzyme in 1× kinase reaction buffer. The assay plate was then added with compounds followed by incubation at room temperature for 10 minutes. Then 2.5 μl/well substrate was added.
Method for ALK2: as §1
Method for ALK3: as §1
Method for ALK4: as §1
Method for ALK5: Six ALK kinase enzyme assays were developed for determination of compound activities on ALK1, ALK2, ALK3, ALK4, ALK5 and ALK6.
as §1
Method for ALK6: as §1

On to `C[S+](=O)([O-])c1cccc(-c2cnn3cc(-c4ccc(OC5(CN6CCOCC6)CC5)cc4)cnc23)c1` [Compound 179, 4-((1-(4-(3-(3-(methylsulfonyl)phenyl)pyrazolo[1,5-a]pyrimidin-6-yl)phenoxy)cyclopropyl)methyl)morpholine], for which the IC50 at ALK1 is 0.38 µM; against ALK2 it was 0.031 µM; against ALK3 it was 0.75 µM; against ALK4, greater than 10 µM; against ALK5 it was greater than 10 µM; at ALK6, 3.6 µM.
As to `NC(c1cccc(-c2cnn3cc(-c4ccc(OC5(CN6CCC(O)CC6)CC5)cc4)cnc23)c1)C(F)(F)F` (stereo not drawn) [Compound 180, 1-((1-(4-(3-(3-(1-amino-2,2,2-trifluoroethyl)phenyl)pyrazolo[1,5-a]pyrimidin-6-yl)phenoxy)cyclopropyl)methyl)piperidin-4-ol], the IC50 is 1.3 µM against ALK1; 0.062 µM against ALK2; 3.8 µM at ALK3; greater than 10 µM against ALK4; greater than 10 µM on ALK5; greater than 10 µM at ALK6.
For `NC(c1cccc(-c2cnn3cc(-c4ccc(OC5(CN6CCOCC6)CC5)cc4)cnc23)c1)C(F)(F)F` (stereo not drawn) [Compound 181, 2,2,2-trifluoro-1-(3-(6-(4-(1-(morpholinomethyl)cyclopropoxy)phenyl)pyrazolo[1,5-a]pyrimidin-3-yl)phenyl)ethanamine], the concentration for half-maximal inhibition (IC50) against ALK1 is 2 µM; at ALK2, 0.07 µM; at ALK3, 3.3 µM; at ALK4 it was greater than 10 µM; against ALK5 it was greater than 10 µM; against ALK6, greater than 10 µM.
As to `NC(c1cccc(-c2cnn3cc(-c4ccc(OC5(CN6CCC(O)C6)CC5)cc4)cnc23)c1)C(F)(F)F` (stereo not drawn) [Compound 182, 1-((1-(4-(3-(3-(1-amino-2,2,2-trifluoroethyl)phenyl)pyrazolo[1,5-a]pyrimidin-6-yl)phenoxy)cyclopropyl)methyl)pyrrolidin-3-ol], the concentration for half-maximal inhibition (IC50) against ALK1 was 2 µM; on ALK2, 0.12 µM; at ALK3, 4.9 µM; against ALK4, greater than 10 µM; on ALK5 it was greater than 10 µM; on ALK6, greater than 10 µM.
On to `C[S+](=O)([O-])c1cccc(-c2cnn3cc(-c4ccc(OC5(CN6C7CCC6CC7)CC5)cc4)cnc23)c1` [Compound 183, 6-(4-(1-(7-azabicyclo[2.2.1]heptan-7-ylmethyl)cyclopropoxy)phenyl)-3-(3-(methylsulfonyl)phenyl)pyrazolo[1,5-a]pyrimidine], for which the IC50 at ALK1 is 0.26 µM; on ALK2, 0.02 µM; against ALK3 it was 1.9 µM; against ALK4, greater than 10 µM; against ALK5, greater than 10 µM; against ALK6, greater than 10 µM.
For the molecule `C[S+](=O)([O-])c1cccc(-c2cnn3cc(-c4ccc(OC5(CN6CCC7(CC6)CNC7)CC5)cc4)cnc23)c1` [Compound 184, 6-(4-(1-(2,7-diazaspiro[3.5]nonan-7-ylmethyl)cyclopropoxy)phenyl)-3-(3-(methylsulfonyl)phenyl)pyrazolo[1,5-a]pyrimidine], the IC50 on ALK1 is 0.32 µM; on ALK2, 0.023 µM; against ALK3, 2.3 µM; against ALK4 it was greater than 10 µM; against ALK5, greater than 10 µM; on ALK6, greater than 10 µM.
As to `C[S+](=O)([O-])c1cccc(-c2cnn3cc(-c4ccc(OC5(CN6CCCC(O)C6)CC5)cc4)cnc23)c1` (stereo not drawn) [Compound 186, 1-((1-(4-(3-(3-(methylsulfonyl)phenyl)pyrazolo[1,5-a]pyrimidin-6-yl)phenoxy)cyclopropyl)methyl)piperidin-3-ol], the IC50 against ALK1 is 0.27 µM; at ALK2 it was 0.02 µM; on ALK3, 0.5 µM; against ALK4 it was greater than 10 µM; on ALK5 it was greater than 10 µM; at ALK6 it was greater than 10 µM.

For orientation: IC50 means the concentration that inhibits the measured activity by half. A low value points to higher potency.
